Results as given in patent US20060069132A1, “Azolecarboxamide herbicides” (priority 2004, published 2006).

How the values were obtained:
Assay in all cases: Test C postemergence herbicide test
downy bromegrass = format: in vivo, Bromus tectorum; settings: for Bromegrass, Downy plant response rating: 500 g ai/ha
Summary of the method: (§1)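 Visual rating, 0 (no effect) to 100 (complete control), vs. controls at 12–14 d in greenhouse. Postemergence: 1–4-leaf plants, 2–18 cm. Paddy: flooded, barnyardgrass at 2-leaf stage.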

Italian ryegrass = format: in vivo, Lolium multiflorum; settings: for Ryegrass, Italian plant response rating: 500 g ai/ha
Summary of the method: as §1

winter barley = format: in vivo, Hordeum vulgare
Summary of the method: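 Scoring by eye, 12–14 days post-treatment, greenhouse-held plants vs. controls; 0 no effect, 100 complete control. Sprayed at 1–4 leaves (2–18 cm); paddy barnyardgrass at 2 leaves, flooded.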

blackgrass = format: in vivo, Alopecurus myosuroides
Summary of the method: as §1

canarygrass = format: in vivo, Phalaris minor; settings: for Canarygrass plant response rating: 500 g ai/ha
Summary of the method: as §1

[1] = Postemergence, 250 g ai/ha, scale 0 to 100, 0 no effect, 100 complete control
[2] = postemergence, 125 g ai/ha, scale 0 to 100
[3] = postemergence, 31 g ai/ha, scale 0 to 100
[4] = postemergence, 62 g ai/ha, scale 0 to 100
[5] = Postemergence, 125 g ai/ha, scale 0 to 100, 0 no effect, 100 complete control
[6] = Postemergence, 250 g ai/ha, scale 0 to 100
[7] = postemergence, 62 g ai/ha, scale 0 to 100 (0 no effect, 100 complete control)
[8] = Postemergence, 500 g ai/ha, scale 0 to 100

With `CCn1nc(C(C)(C)C)cc1C(=O)Nc1cccc(C(=O)NCC2CC2)c1` [Compound 62] the “Plant response rating, Bromegrass, Downy” value (downy bromegrass; [1]) was 30, the “Plant response rating, Bromegrass, Downy” value (downy bromegrass; [2]) was 20 and the “Plant response rating, Bromegrass, Downy” value (downy bromegrass; [3]) was 10. The “Plant response rating, Bromegrass, Downy” value (downy bromegrass; [4]) was 20, the “Plant response rating, Ryegrass, Italian” value (Italian ryegrass; [1]) was 40 and the “Plant response rating, Ryegrass, Italian” value (Italian ryegrass; [2]) was 20. The “Plant response rating, Ryegrass, Italian” value (Italian ryegrass; [4]) was 20, the “Plant response rating, Barley, Winter” value (winter barley; [5]) was 10 and the “Barley, Winter plant response rating” value (winter barley; [6]) was 10. For the same compound, the “Plant response rating, Barley, Winter” value (winter barley; [3]) was 0, the “Plant response rating, Barley, Winter” value (winter barley; [7]) was 10 and the “Blackgrass plant response rating” value (blackgrass; [6]) was 40. The “Plant response rating, Blackgrass” value (blackgrass; [2]) was 40, the “Plant response rating, Blackgrass” value (blackgrass; [3]) was 20 and the “Plant response rating, Blackgrass” value (blackgrass; [4]) was 40. The “Plant response rating, Canarygrass” value (canarygrass; [1]) was 40, the “Plant response rating, Canarygrass” value (canarygrass; [2]) was 30 and the “Plant response rating, Canarygrass” value (canarygrass; [3]) was 0. The “Plant response rating, Canarygrass” value (canarygrass; [4]) was 0.

For `CCCCOc1cccc(NC(=O)c2cc(C(C)(C)C)nn2CC)c1` [Compound 137], the “Bromegrass, Downy plant response rating” value (downy bromegrass; Postemergence, scale 0 to 100) was 40, the “Plant response rating, Bromegrass, Downy” value (downy bromegrass; [1]) was 20 and the “Plant response rating, Bromegrass, Downy” value (downy bromegrass; [2]) was 20. For the same compound, the “Plant response rating, Bromegrass, Downy” value (downy bromegrass; [4]) was 10, the “Ryegrass, Italian plant response rating” value (Italian ryegrass; Postemergence, scale 0 to 100) was 60 and the “Plant response rating, Ryegrass, Italian” value (Italian ryegrass; [1]) was 40. For the same compound, the “Plant response rating, Ryegrass, Italian” value (Italian ryegrass; [2]) was 40, the “Plant response rating, Ryegrass, Italian” value (Italian ryegrass; [4]) was 20 and the “Barley, Winter plant response rating” value (winter barley; [8]) was 30. The “Plant response rating, Barley, Winter” value (winter barley; [5]) was 20, the “Plant response rating, Barley, Winter” value (winter barley; [1]) was 20 and the “Plant response rating, Barley, Winter” value (winter barley; [7]) was 10. The “Blackgrass plant response rating” value (blackgrass; [8]) was 60, the “Plant response rating, Blackgrass” value (blackgrass; [1]) was 40 and the “Plant response rating, Blackgrass” value (blackgrass; [2]) was 40. For the same compound, the “Plant response rating, Blackgrass” value (blackgrass; [4]) was 40, the “Canarygrass plant response rating” value (canarygrass; Postemergence, scale 0 to 100) was 40 and the “Plant response rating, Canarygrass” value (canarygrass; [1]) was 40. For the same compound, the “Plant response rating, Canarygrass” value (canarygrass; [2]) was 30 and the “Plant response rating, Canarygrass” value (canarygrass; [4]) was 20.

With `CCOC(=O)c1cccc(NC(=O)c2cc(C3(C)CC3)nn2CC)c1` [Compound 295] the “Plant response rating, Bromegrass, Downy” value (downy bromegrass; [1]) was 45, the “Plant response rating, Bromegrass, Downy” value (downy bromegrass; [2]) was 45 and the “Plant response rating, Bromegrass, Downy” value (downy bromegrass; [3]) was 45. The “Plant response rating, Bromegrass, Downy” value (downy bromegrass; [4]) was 45, the “Plant response rating, Ryegrass, Italian” value (Italian ryegrass; [1]) was 65 and the “Plant response rating, Ryegrass, Italian” value (Italian ryegrass; [2]) was 40. The “Plant response rating, Ryegrass, Italian” value (Italian ryegrass; [4]) was 40, the “Plant response rating, Barley, Winter” value (winter barley; [5]) was 35 and the “Plant response rating, Barley, Winter” value (winter barley; [1]) was 35. The “Plant response rating, Barley, Winter” value (winter barley; [3]) was 35, the “Plant response rating, Barley, Winter” value (winter barley; [7]) was 35 and the “Plant response rating, Blackgrass” value (blackgrass; [1]) was 65. For the same compound, the “Plant response rating, Blackgrass” value (blackgrass; [2]) was 65, the “Plant response rating, Blackgrass” value (blackgrass; [3]) was 45 and the “Plant response rating, Blackgrass” value (blackgrass; [4]) was 45. For the same compound, the “Plant response rating, Canarygrass” value (canarygrass; [1]) was 35, the “Plant response rating, Canarygrass” value (canarygrass; [2]) was 35 and the “Plant response rating, Canarygrass” value (canarygrass; [3]) was 25. For the same compound, the “Plant response rating, Canarygrass” value (canarygrass; [4]) was 30.

With `CCn1nc(C2(C)CC2)cc1C(=O)Nc1cc(C(=O)N2CC=CC2)ccc1F` [Compound 301] the “Bromegrass, Downy plant response rating” value (downy bromegrass; Postemergence, scale 0 to 100) was 40, the “Plant response rating, Bromegrass, Downy” value (downy bromegrass; [1]) was 40 and the “Plant response rating, Bromegrass, Downy” value (downy bromegrass; [2]) was 40. For the same compound, the “Plant response rating, Bromegrass, Downy” value (downy bromegrass; [4]) was 40, the “Ryegrass, Italian plant response rating” value (Italian ryegrass; Postemergence, scale 0 to 100) was 65 and the “Plant response rating, Ryegrass, Italian” value (Italian ryegrass; [1]) was 45. For the same compound, the “Plant response rating, Ryegrass, Italian” value (Italian ryegrass; [2]) was 45, the “Plant response rating, Ryegrass, Italian” value (Italian ryegrass; [4]) was 35 and the “Barley, Winter plant response rating” value (winter barley; [8]) was 40. The “Plant response rating, Barley, Winter” value (winter barley; [5]) was 30, the “Plant response rating, Barley, Winter” value (winter barley; [1]) was 30 and the “Plant response rating, Barley, Winter” value (winter barley; [7]) was 30. For the same compound, the “Blackgrass plant response rating” value (blackgrass; [8]) was 45, the “Plant response rating, Blackgrass” value (blackgrass; [1]) was 90 and the “Plant response rating, Blackgrass” value (blackgrass; [2]) was 75. The “Plant response rating, Blackgrass” value (blackgrass; [4]) was 55, the “Canarygrass plant response rating” value (canarygrass; Postemergence, scale 0 to 100) was 50 and the “Plant response rating, Canarygrass” value (canarygrass; [1]) was 50. For the same compound, the “Plant response rating, Canarygrass” value (canarygrass; [2]) was 45 and the “Plant response rating, Canarygrass” value (canarygrass; [4]) was 35.
